Reference: PubChem BioAssay AID2060906 (Molecular Pharmacology Branch, DTP, NCI, 2025)
pIC50: −log10 of the molar value.

Tested on: 485176-168-R4-J1-PDC complex spheroid growth
Test: Anticancer human tumor 485176-168-R4-J1-PDC patient-derived pancreatic adenocarcinoma cell line growth inhibition [RAS]
Conditions: for pIC50: curve of first compound; for viability, T/C: stronger effect = lower value
Summary of the method: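 Multi-cell-type spheroids: tumor cells plus HUVEC endothelial cells and mesenchymal stem cells. RAS-pathway inhibitors were combined with targeted agents, each dosed in half-log steps down from clinical Cmax, or from 10 microM when Cmax was unknown.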
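Also: spheroids exposed to compounds for seven days before readout.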
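For viability, T/C in this document: luminescence viability expressed relative to DMSO vehicle wells set as 100%.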

`NC1c2ccccc2OC12CCN(c1cnc3c(N4CCCc5ncccc54)n[nH]c3n1)CC2` (configuration not stated) + CCn1c(-c2cccnc2C(C)OC)c2c3cc(ccc31)N1CCOC(CC(NC(=O)C(C(C)C)N(C)C(=O)C3(F)CCN(C(=O)C#CC(C)(C)N(C)C)CC3)C(=O)N3CCCC(N3)C(=O)OCC(C)(C)C2)C1 was tested, and the pIC50 (second compound 0.000949 µM) was < 5.00, the pIC50 (second compound 0.003 µM) was < 5.00 and the pIC50 (second compound 0.00949 µM) was < 5.00. For the same molecule, the pIC50 (second compound 0.03 µM) was < 5.00, the pIC50 (second compound 0.0949 µM) was < 5.00 and the pIC50 (second compound 0.3 µM) was < 5.00. It also gave a viability, T/C (second compound 0.000949 µM, first compound 0.0316 µM) of 91.4%, a viability, T/C (second compound 0.000949 µM, first compound 0.1 µM) of 78.7% and a viability, T/C (second compound 0.000949 µM, first compound 0.316 µM) of 94.2%. For the same molecule, the viability, T/C (second compound 0.000949 µM, first compound 1 µM) was 85.9%, the viability, T/C (second compound 0.000949 µM, first compound 3.16 µM) was 67.8% and the viability, T/C (second compound 0.000949 µM, first compound 10 µM) was 71.6%. For the same molecule, the viability, T/C (second compound 0.003 µM, first compound 0.0316 µM) was 74.5%, the viability, T/C (second compound 0.003 µM, first compound 0.1 µM) was 89.4% and the viability, T/C (second compound 0.003 µM, first compound 0.316 µM) was 84.1%. The viability, T/C (second compound 0.003 µM, first compound 1 µM) was 85.5%, the viability, T/C (second compound 0.003 µM, first compound 3.16 µM) was 85.7% and the viability, T/C (second compound 0.003 µM, first compound 10 µM) was 70.2%. The viability, T/C (second compound 0.00949 µM, first compound 0.0316 µM) was 85%, the viability, T/C (second compound 0.00949 µM, first compound 0.1 µM) was 75.6% and the viability, T/C (second compound 0.00949 µM, first compound 0.316 µM) was 81.9%. For the same molecule, the viability, T/C (second compound 0.00949 µM, first compound 1 µM) was 86.8%, the viability, T/C (second compound 0.00949 µM, first compound 3.16 µM) was 89.9% and the viability, T/C (second compound 0.00949 µM, first compound 10 µM) was 63.6%. The viability, T/C (second compound 0.03 µM, first compound 0.0316 µM) was 88.8%, the viability, T/C (second compound 0.03 µM, first compound 0.1 µM) was 86.8% and the viability, T/C (second compound 0.03 µM, first compound 0.316 µM) was 80.2%. It also gave a viability, T/C (second compound 0.03 µM, first compound 1 µM) of 71.3%, a viability, T/C (second compound 0.03 µM, first compound 3.16 µM) of 93.9% and a viability, T/C (second compound 0.03 µM, first compound 10 µM) of 61.1%. The viability, T/C (second compound 0.0949 µM, first compound 0.0316 µM) was 75%, the viability, T/C (second compound 0.0949 µM, first compound 0.1 µM) was 71.8% and the viability, T/C (second compound 0.0949 µM, first compound 0.316 µM) was 72.7%. For the same molecule, the viability, T/C (second compound 0.0949 µM, first compound 1 µM) was 65.9%, the viability, T/C (second compound 0.0949 µM, first compound 3.16 µM) was 82.2% and the viability, T/C (second compound 0.0949 µM, first compound 10 µM) was 61.7%. It also gave a viability, T/C (second compound 0.3 µM, first compound 0.0316 µM) of 59.9%, a viability, T/C (second compound 0.3 µM, first compound 0.1 µM) of 76.7% and a viability, T/C (second compound 0.3 µM, first compound 0.316 µM) of 57%. For the same molecule, the viability, T/C (second compound 0.3 µM, first compound 1 µM) was 70.2%, the viability, T/C (second compound 0.3 µM, first compound 3.16 µM) was 62.9% and the viability, T/C (second compound 0.3 µM, first compound 10 µM) was 61.7%.
